What was measured:
CL141 = test: Tumor spheroid (sphere formation) assay; type: cell-based
H441 [1] = test: Tumor spheroid (sphere formation) assay; type: cell-based, human; details: H441, adenocarcinoma
U87MG [2] = test: Tumor spheroid (sphere formation) assay; type: cell-based; details: brain cancer
J5 = test: Tumor spheroid (sphere formation) assay; type: cell-based; details: J5, hepatocellular carcinoma
H441 [3] = test: Side population analysis by flow cytometry (Hoechst 33342); type: cell-based, human; details: H441, adenocarcinoma
Experimental: Single-cell suspensions of cells were detached from dishes with Trypsin-EDTA (Invitrogen) and suspended at 1×10^6 cells/mL in Hank's balanced salt solution ([…]) supplemented with 3% fetal calf serum and 10 mM Hepes. These cells were then incubated at 37° C. for 90 minutes with 20 μg/mL Hoechst 33342 (Sigma Chemical, St. Louis, Mo.). […] After 90 minutes incubation with indicated drugs, the cells were centrifuged immediately for 5 minutes at 300 g and 4° C. and resuspended in ice-cold HBSS, The cells were kept on ice to inhibit efflux of the Hoechst dye, and 1 μg/mL propidium iodide (PI, BD) were added to discriminate dead cells. Finally, these cells were filtered through a 40 μm cell strainer (BD) to obtain single-suspension cells. Cell dual-wavelength analysis and purification were performed on a dual-laser FACS Vantage SE (BD). Hoechst 33342 can be excited at 355 nm UV light and emitted blue fluorescence with a 450/20 band-pass (BP) filter and red fluorescence with a 675 nm edge filter long-pass (EFLP). […]
A549, A549-ON, CL97, CL141, HCC827, and H441 were lung adenocarcinoma cell lines. […] Cell viability was determined by SRB assay. […] To determine whether side population (SP) cells, which represent a cell population with CSC characteristics, exist in NSCLC cell lines, we stained the cells with the fluorescent dye, Hoechst 33342, and analyzed the cells with flow cytometry.

GBM8401 = test: as above; type: cell-based; details: GBM8401, brain cancer
Experimental: (§1) Single-cell suspensions of cells were detached from dishes with Trypsin-EDTA (Invitrogen) and suspended at 1×10^6 cells/mL in Hank's balanced salt solution ([…]) supplemented with 3% fetal calf serum and 10 mM Hepes. These cells were then incubated at 37° C. for 90 minutes with 20 μg/mL Hoechst 33342 (Sigma Chemical, St. Louis, Mo.). The ABC transporter inhibitor verapamil (Sigma) was added at a final concentration of 50 μM to confirm the gating area on flow cytometry. After 90 minutes incubation with indicated drugs, the cells were centrifuged immediately for 5 minutes at 300 g and 4° C. and resuspended in ice-cold HBSS, The cells were kept on ice to inhibit efflux of the Hoechst dye, and 1 μg/mL propidium iodide (PI, BD) were added to discriminate dead cells. Finally, these cells were filtered through a 40 μm cell strainer (BD) to obtain single-suspension cells. Cell dual-wavelength analysis and purification were performed on a dual-laser FACS Vantage SE (BD). Hoechst 33342 can be excited at 355 nm UV light and emitted blue fluorescence with a 450/20 band-pass (BP) filter and red fluorescence with a 675 nm edge filter long-pass (EFLP). A 610 nm dichroic mirror short-pass (DMSP) was used to separate the emission wavelengths. PI-positive (dead) cells were excluded from the analysis.

U87MG [4] = test: as above; type: cell-based; details: brain cancer
Experimental: as §1

CL141 spheres = test: Cytotoxicity at sphere cells, Trypan Blue Exclusion method; type: cell-based; details: read-out: IC50 for prochlorperazine metabolites
NSCLC cell lines [5] = details: conclusion in words
Experimental: Cells were plated in 96-well plates at a density of 2000 cells per well in triplicate. The cells were treated on the third day (to ensure proper plating efficiency and vitality) to indicated agents for 48 hrs. […] Cytotoxicity was assessed using the sulforhodamine B (SRB) assay (23). Briefly, the medium was discarded, and the adherent cells were fixed by 100 μl of cold 10% trichioroacetic acid (w/v) in each well for 1 h at 4° C. After fixation, cells were stained with 100 μl/well of 0.4% (w/v, in 1% acetic acid) SRB solution for 30 min at room temperature, and then washed 5 times with 1% acetic acid. After air-drying, 100 μl of 10 mM Tris base was added to each well and the absorbance was read at 530 nm. Cytotoxicity is expressed as the percent of cells in drug treated wells relative to number of cells in the solvent only control (set to 100%). Each experiment was performed independently at least 2 times in triplicate and cytotoxicity is given as means ±SD.
(§2) A549, A549-ON, CL97, CL141, HCC827, and H441 were lung adenocarcinoma cell lines. CL152, H2170, and H226 were squamous cell carcinoma cell lines. Cell viability was determined by SRB assay. […] To determine whether side population (SP) cells, which represent a cell population with CSC characteristics, exist in NSCLC cell lines, we stained the cells with the fluorescent dye, Hoechst 33342, and analyzed the cells with flow cytometry.

A549 cells = test: Senescence, β-galactosidase (SA-β-Gal) activity; type: cell-based; details: A549, 24 hours; 1 μM prochlorperazine, 50 μM resveratrol as positive control
Source text: EMT also plays a critical role in the regulation of cancer sternness. EMT is characterized by enhanced cell migration and invasion.

NCI-H441 = test: Subcutaneous NCI-H441 tumor in NOD/SCID mice; type: in vivo; details: 5 mg/kg, 5 days/week, i.p.; four weeks post treatment; vs vehicle, p<0.01
Experimental: In the first trial, human lung cancer cell line NCI-H441 (purchased from ATCC, 1 million cells/injection) cells were subcutaneously injected into the right flank of NOD/SCID mice (female, 4-6 weeks old). […] Over the period of 4 weeks, tumorigenesis in both groups was measured using a caliper on a weekly basis. The change in tumor size was expressed as in fold change and plotted over time.
In the first trial (FIG. 3A), NCI-H441 (1×10^6 cells/injection) cells were subcutaneously injected into the right flank of NOD/SCID mice (female, 4-6 weeks old).

CL152 = CL152 (squamous) tumor-bearing NOD/SCID mice, standard regimen combination; type: in vivo
[6] = test system: lung squamous cell carcinoma; test: Case study, lung squamous cell carcinoma patient; type: in vivo, human; details: person; prochlorperazine added to Tarceva (erlotinib); CT after 3 months
[7] = test system: signet ring cell carcinoma; test: Case study, signet ring cell carcinoma patient; type: in vivo, human; details: person; prochlorperazine with several kinds of chemotherapy; last followed-up CT
NSCLC cell lines [8] = test: Clonogenic assay in NSCLC cell lines; type: cell-based; details: different concentration of prochlorperazine
Experimental: Tested cells were seeded respectively in 6 well plates with 10^4 cells per well for 14 days. […] After removing the crystal violet carefully and rinse with tap water, the colonies were counted manually.
as §2

H1299 = test: Tumor spheroid (sphere formation) assay
Experimental: In brief, single cells were plated in 6-well ultralow attachment plates (Coming Inc.) at a density of 2,000 cells/mL in tumor spheroid culture medium, DMEM/F12 supplemented with 1% N2 Supplement (Invitrogen), 10 ng/mL basic fibroblast growth factor (Sigma-Aldrich), 10 ng/mL epidermal growth factor (Invitrogen) with 1% penicillin/streptomycin (Invitrogen) at 37° C. in a humidified atmosphere of 95% air and 5% CO2. Cells were cultured twice per week. When passaged, tumor spheres were harvested. Spheroids were dissociated with TrypLE™ (Invitrogen). Spheroids cell counting using the Trypan Blue Exclusion method.

## CN1CCN(CCCN2c3ccccc3Sc3ccc(Cl)cc32)CC1 [prochlorperazine]
CL141; CL141, adenocarcinoma
  Sphere formation: 0 to 2.5 µM
CL141; CL141 sphere cells, 1, 2.5, 5 and 10 μM, 48 hours, concentration-dependent
  number of spheres: reduced the number of spheres
CL141; CL141 spheres, co-treatment with pemetrexed vs pemetrexed alone, 48 hours
  number of sphere cells, co-treatment: significantly decreased the number of sphere cells
H441 [1]
  Sphere formation: 0 to 2.5 µM
U87MG [2]
  Sphere formation: 10 to 15 µM
J5
  Sphere formation: >5 µM
H441 [3]
  Side population: <5 µM
GBM8401
  Side population: >10 µM
U87MG [4]
  Side population: >10 µM
CL141 spheres
  IC50: < 5 µM
NSCLC cell lines [5]
  cytotoxic effects in NSCLC cells: low or minimal cytotoxic effects
A549 cells
  β-galactosidase activity (senescence): increased β-galactosidase activity
NCI-H441
  tumor growth: effective in suppressing tumor growth
CL152; 5 mg/kg
  tumor growth, prochlorperazine alone: could inhibit tumor growth
CL152; 60 mg/kg gemcitabine + 3 mg/kg cisplatin + 5 mg/kg prochlorperazine
  tumor growth, standard treatment combined with prochlorperazine: more significantly inhibitory effect of tumor growth than other treatments
[6]
  CT follow-up of disease: stable disease
[7]
  tumor on CT: tumor was stable
NSCLC cell lines [8]
  Clonogenicity of NSCLC cell lines: reduced in a concentration-dependent manner
H1299; H1299
  sphere-forming ability: suppressed the sphere-forming ability
H1299; H1299, large cell carcinoma
  Sphere formation: 0 to 5 µM
H1299; H1299, combination with cisplatin vs prochlorperazine or cisplatin alone
  spheres number, combination with cisplatin: lower spheres number
